Results taken from patent US11246813B2, “Composition for preventing hair loss or promoting hair development, comprising irone as active ingredient” (INDUSTRY-ACADEMIC COOPERATION FOUNDATION, YONSEI UNIVERSITY, priority 2017, dated 2022).

Tests used:
Assay type in all cases: cell-based
[1] = test system: human hair dermal papilla cells; assay: MTT assay, cell viability and proliferation in human hair dermal papilla cells
Procedure: Human hair dermal papilla cells were purchased from PromoCell GmbH (Heidelberg, Germany). The human hair dermal papilla cells were cultured in an incubator at 37° C., 5% CO2 using HFDPC medium (PromoCell, Germany) with fetal bovine serum (FBS) and Dulbecco's modified Eagle's medium (DMEM; Gibco BRL, Gaithersburg, Md., USA). Due to the nature of the cells, cells at passages 2 to 5 were used for all experiments. The human hair dermal papilla cells were dispensed into 24-well plates to 1×10^5 cells/well, and then cultured for 24 hours in an incubator at 37° C., 5% CO2 so that the cells are stabilized. Treatment with samples at respective concentrations (0, 10, 20, 50, 100, 200, 400 μg/ml) was performed and culture was performed for 24 hours. Then, treatment with 100 ul of 3-(4,5-dimethylthiazol-2-yl)-2,5-diphenyltetrazolium bromide (MTT; Sigma Aldrich, St. Louis, USA) reagent at a concentration of […] was performed and culture was performed again for 4 hours. After removing the medium, the precipitate (formazan) was dissolved in DMSO and the absorbance was measured at a wavelength of 540 nm. A proliferation rate thereof was evaluated based on the absorbance of a control group containing only DMSO.

VEGF [2] = assay: VEGF ELISA of culture solution of human hair dermal papilla cells; details: 20 μM, 24 hours, vs DMSO
Procedure: (§1) Human hair dermal papilla cells were purchased from PromoCell GmbH (Heidelberg, Germany). The human hair dermal papilla cells were cultured in an incubator at 37° C., 5% CO2 using HFDPC medium (PromoCell, Germany) with fetal bovine serum (FBS) and Dulbecco's modified Eagle's medium (DMEM; Gibco BRL, Gaithersburg, Md., USA). Due to the nature of the cells, cells at passages 2 to 5 were used for all experiments. The human hair dermal papilla cells were dispensed into 12-well plates to 3×10^4 cells/well, and then the culture solutions were treated with alpha-irone at 20 μM. DMSO was used as a negative control group. The alpha-irone-treated culture solutions were collected after 24 hours, and experiments were conducted using human VEGF ELISA Kit (Enzo Life Sciences, NY, USA), human IGF-1 ELISA kit (Enzo Life Sciences, NY, USA), and cAMP complete ELISA kit (Enzo Life Sciences, NY, USA), respectively, according to the manufacturers' protocol.

IGF-1 = IGF-1 ELISA of culture solution of human hair dermal papilla cells; details: 20 μM, 24 hours, vs DMSO
Procedure: as §1

cAMP = cAMP ELISA in human hair dermal papilla cells; details: 20 μM, 24 hours, vs DMSO
Procedure: as §1

PKA Cα = assay: Western blot of PKA Cα in human hair dermal papilla cells; details: 20 μM
Procedure: (§2) The […] of human hair dermal papilla cells, obtained by performing treatment with alpha-irone at 20 μM and performing culture, was homogenized with a lysis buffer, and then centrifuged at 13,000×g for 20 minutes at 4° C. Protein quantification was performed by Bradford assay. 40 μg of the protein was electrophoresed on 10% SDS polyacrylamide gel and then transferred to nitrocellulose membranes. The protein was allowed to react with each of PKA Cα, β-catenin, β-actin, and GAPDH antibody (Cell Signaling Technology, Danvers, Mass., USA). Each protein's signal was visualized with a chemiluminescent detection system (Amersham), and then the band's thickness was quantified using the Quantity One Analysis Software (Bio-Rad Laboratories).

β-catenin = assay: Western blot of β-catenin in human hair dermal papilla cells; details: 20 μM
Procedure: as §2

LEF = assay: RT-PCR of LEF mRNA in human hair dermal papilla cells; details: 20 μM, 24 hours
Procedure: (§3) In the present invention, in order to identify activity of alpha-irone on human hair dermal papilla cells (DPCs), when the DPCs reached 70% to 80% confluency, treatment with alpha-irone at 20 μM was performed, and then culture was performed under a condition of 5% CO2 and 37° C. 24 hours after the treatment, the cells were collected and total RNA was extracted with Trizol Reagent (Gibco BRL, USA). The total RNA was quantified by absorbance measurement at 260 nm.
(§4) After isolation of RNA, cDNA was synthesized by performing reverse transcription using oligo dT primers and SuperScript reverse transcriptase (GIBCOBRL, Gaithersburg, Md., USA). PCR was performed using, as a template, cDNA obtained through reverse transcription and using, as primers, 5′ and 3′ flanking sequences of the gene's cDNA to be amplified. Here, required primers were obtained by making a request for synthesis with a company specializing in primer manufacturing (BIONEER CORPORATION, Korea) and used. To a mixture obtained by mixing of 5 μl of 10× reaction buffer [100 mM KCL, 20 mM Tris-HCl (pH 8.0), 2.5 mM MgCl2], 4 μl of 10 mM dNTP, and 1 μl each of 0.2 μM sense and antisense primers, were added 2 μl of the completed cDNA reaction mixture and 2.5 unit of Taq polymerase (Takara, Japan). Then, the volume was adjusted with 50 μl of distilled water, and PCR was performed using a PCR instrument. […]

Cyc-D = assay: RT-PCR of Cyc-D mRNA in human hair dermal papilla cells; details: 20 μM, 24 hours
Procedure: as §3, §4

VEGF [3] = assay: RT-PCR of VEGF mRNA in human hair dermal papilla cells; details: 20 μM, 24 hours
Procedure: as §3, §4

IGF = assay: RT-PCR of IGF-1 mRNA in human hair dermal papilla cells; details: 20 μM, 24 hours
Procedure: as §3, §4

CC(=O)/C=C/C1C(C)=CCC(C)C1(C)C (stereo not drawn) [alpha-irone, (E)-4-(2,5,6,6-tetramethylcyclohex-2-en-1-yl)but-3-en-2-one]
cell viability (MTT assay) ([1]; 24 hours culture, up to a concentration of 400 μg/ml, vs DMSO control): did not affect the cell viability | increase of proliferation rate ([1]; alpha-irone 10 μM): 10.6% | increase of proliferation rate ([1]; alpha-irone 20 μM): 37% | increase of proliferation rate ([1]; alpha-irone 50 μM): 28% | increase in concentration of VEGF (VEGF [2]): 27% | increase in concentration of IGF-1 (IGF-1): 18% | increase in cAMP concentration (cAMP): 51% | increase in expression of PKA Cα protein (PKA Cα): 52% | increase in expression of β-catenin protein in the cell nucleus (β-catenin): 38% | increase in mRNA expression of LEF (LEF): 348% | increase in mRNA expression of Cyc-D (Cyc-D): 250% | increase in mRNA expression of VEGF (VEGF [3]): 247% | increase in mRNA expression of IGF (IGF): 217%
